Measured values from patent US4804665A, “Azaspiro compounds and their use” (Takeda Chemical Industries, Ltd., priority 1986, dated 1989).
Structures can show the parent of a compound that is named as a salt.

What was measured:
[1] = test system: CO2-induced amnesia in mice; experiment: Effect on CO2-induced amnesia in mice (passive avoidance response); assay type: in vivo, mice (male ICR); settings: p.o.; for Anti-amnesia (latency, percent change of the mean time of the vehicle-treated control group): 30 min before the test, saline = 100; for minimal effective dose: Mus musculus, po, mice, read-out: Anti-amnesia MED (minimum effective dose for CO2-induced amnesia)
Experimental: Effect on CO2 -induced amnesia in mice Effect of the compound (I) on […] of passive avoidance response, induced by exposing mice to 100% CO2 gas, was evaluated. Male ICR mice (Japan Clea) aged 5 weeks were used. The experimental apparatus consisted of two chambers, in which one illuminated chamber (9×9×25 cm) was connected to a dark chamber (25×25×30 cm) with a guillotine door. Each mouse was placed in the illuminated chamber and then allowed to enter the dark one. When the mouse entered the dark chamber, the door was closed and AC 0.5 mA footshock was applied to the floor grid of the dark chamber. The mouse can memorize the experience after receiving the uncomfortable stimulus for a few weeks. Next, the consolidation processes of memory were disturbed by an experimental manipulation: Each mouse was placed under the hypoxic condition by being placed into a 4L desiccator filled with 100% CO2 gas, immediately after receiving the footshock in the dark chamber. When his respiratory function was stopped, the mouse was taken out from the desiccator and given an artificial respiration till recovering spontaneous respiration. This procedure disturbed the consolidation of the memory (experience of footshock). On the next day, a retention test was performed to see whether the mouse memorized the footshock or not. In the test, the mouse was again placed in the illuminated compartment and the latency to enter the dark compartment was measured. The mice subjected to hypoxia entered the dark compartment with short latency, 10-20 sec. […] The ameliorating effect of compounds on the amnesia induced by hypoxia was evaluated by the latency time, and was expressed as the percent change of the mean time of the vehicle-treated control group (Table 6.).

mice = experiment: General Symptoms (Side Effects) in mice; assay type: in vivo; design: key: +++: marked; ++: moderate; +: mild; -: nondetected; settings: i.p., observed for 4 hours; for Hypothermia / Sedation / Tremor: central effect; for Diarrhea / Mydriasis / Salivation: peripheral effect
Experimental: General Symptoms (Side Effects) Four mice were used for each group. Mice were placed in stainless steel cages (13×18×25 cm) and after a 1-hr habitation period the compounds were administered. […] Peripheral and central effects of the compounds were estimated with the incidences of diarrhea, salivation and mydriasis and with the incidences of tremor and sedation and a grade of hypothermia, respectively. The compounds which were soluble in saline were solubilized in saline and the other were suspended in 5% arabic gum solution. Each compound was administered intraperitoneally (i.p.).

[2] = LD50 value and Therapeutic index; settings: mouse, in vivo, po; for LD50: mice; for selectivity ratio: ratio of LD50 value to MED for CO2-induced amnesia
Description: LD50 value and Therapeutic index
Ten mice were used for each group. LD50 value and therapeutic index were estimated with the dose (mg/kg, p.o.) which induced death in 50% of mice and with a ratio of LD50 value to a minimum effective dose (MED) for CO2 -induced amnesia, respectively.

[3] = dose 0.3 mg/kg, * P < 0.05, ** P < 0.01

Structure (SMILES)	Anti-amnesia (latency, percent change of the mean time of the vehicle-treated control group) ([1]; dose 0.1 mg/kg, * P < 0.05) [%]	Hypothermia (mice)	Sedation (mice)	Tremor (mice)	Diarrhea (mice)	Mydriasis (mice)	Salivation (mice)	LD50 [2] [mg/kg]	selectivity ratio [2]	minimal effective dose [1] [mg/kg]	Anti-amnesia (latency, percent change of the mean time of the vehicle-treated control group) [1, 3] [%]	Anti-amnesia (latency, percent change of the mean time of the vehicle-treated control group) ([1]; dose 1.0 mg/kg, * P < 0.05) [%]
CON1C(=O)CC2(CCN(C)CC2)C1=O.Cl [Example 1, 2-Methoxy-8-methyl-2,8-diazaspiro[4,5]decane-1,3-dione hydrochloride]	277	-	++	++	-	-	+++					
CON1C(=O)CC2(CCNCC2)C1=O [Example 9, 2-Methoxy-2,8-diazaspiro[4,5]decane-1,3-dionehydrochloride]	227	+	++	-	++	-	+++	2010	20100	0.1	321	
CON1C(=O)CC2(CCN(C(=O)OCCBr)CC2)C1=O [Example 22, 8-(2-Bromoethoxycarbonyl)-2-methoxy-2,8-diazaspiro[4,5]decane-1,3-dione]		+	+	-	+	+	+					311
CCN1C(=O)CC2(CCN(C)CC2)C1=O [RS-86, reference compound]		+++	+++	+	+++	++	+++	574	1910	0.3	258	
